Laboratory results as given in ChEMBL document CHEMBL1201862, “PubChem BioAssay data set” (2004).
“And” between values parts separate entries of the source, which are not always exact repeats. Identical values can stand only once.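 Grown in 96-well plates, cells were treated for 48 hours with each compound at five concentrations. Insufficient inhibition: endpoint recorded as highest concentration tested. GI50 is the concentration that inhibits growth by half.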 The source made the active and inactive calls. Cut-off read from the data, not from the text of the source: active = GI50 up to about 1.1 µM and inactive = higher.

Experiments:
Assay in all cases: NCI-60 cell line screen, 48 h
[1] = system: SF-539
[2] = system: SW-620
[3] = system: Hs-578T
[4] = system: PC-3
[5] = system: A549
[6] = system: 786-0
[7] = system: BT-549
[8] = system: SK-MEL-5
[9] = system: OVCAR-8
[10] = system: MDA-MB-435
[11] = system: HOP-92
[12] = system: OVCAR-5
[13] = system: OVCAR-4
[14] = system: MDA-MB-231
[15] = system: NCI-H460
[16] = system: MCF7
[17] = system: UO-31
[18] = system: T47D
[19] = system: SK-MEL-2

Measured: GI50

O=[N+]([O-])c1ccc2c(c1)Sc1ccccc1N2
inactive: [1] > 100 µM | [2] 43.9 µM | [3] 17.2 µM | [4] 31.9 µM | [5] 8.51 µM | [6] 64.3 µM | [7] > 100 µM | [8] 9.33 µM | [9] > 100 µM | [10] 3.72 µM | [11] 6.12 µM | [12] > 100 µM | [13] > 100 µM | [14] 46.1 µM | [15] 22.8 µM | [16] 44.6 µM | [17] > 100 µM

O=C1C(=O)N(c2cccc(C(F)(F)F)c2)C(=S)N1c1ccccc1
inactive: [1] 26.1 µM | [18] 25.4 µM | [2] 36.2 µM | [3] 27.9 µM | [4] 30.8 µM | [5] 33.3 µM | [6] 33.3 µM | [8] 17.9 µM | [9] 33.7 µM | [10] 27.4 µM | [19] 19.1 µM | [11] 19.1 µM | [12] 30 µM | [13] 41.1 µM | [14] 24.4 µM | [15] 2.32 µM | [17] 25.2 µM

O=C(c1ccccc1)N1CCC(CC2(c3cc4ccccc4[nH]3)OCCO2)CC1
inactive: [1] 37.7 µM | [18] 41.4 µM | [2] 19.5 µM | [4] 40.5 µM | [5] 68.5 µM | [6] 17.8 µM | [7] 52.5 µM | [8] 19.7 µM | [9] 58.6 µM | [10] 20.6 µM | [19] 30.7 µM | [11] 21.2 µM | [12] 64 µM | [13] 47.3 µM | [14] 64.1 µM | [15] 35.9 µM | [16] 19.4 µM | [17] 30.6 µM

CSC12c3cc(C)n(-c4ccc([N+](=O)[O-])cc4)c3CC(C)(C)CN1C(=O)C2Oc1ccccc1 (stereo unspecified)
inactive: [1] > 100 µM | [18] 32.7 µM | [2] > 100 µM | [4] > 100 µM | [5] 46.1 µM | [6] > 100 µM | [7] > 100 µM | [8] > 100 µM | [9] > 100 µM | [10] 19.8 µM | [19] > 100 µM | [11] 24.2 µM | [12] > 100 µM | [13] 4.72 µM | [14] 96.6 µM | [15] 71.9 µM | [16] 28.6 µM | [17] > 100 µM

Cc1cc([N+](=O)[O-])c(C)c2c1[nH]c1ccc(/C(CCC3CCCC3)=N\N)cc12
inactive: [1] 17.3 µM | [2] 16.5 µM | [5] 17.6 µM | [6] 14.7 µM | [8] 18.2 µM | [9] 23.1 µM | [19] 16.2 µM | [12] > 10 µM | [13] 27.4 µM | [15] 18 µM | [17] 15.3 µM

CC(=O)C(=[N+]=[N-])C(=O)N(C)CCC#N
inactive: [1] > 10 µM | [18] > 10 µM | [2] > 10 µM | [4] > 10 µM | [5] > 10 µM | [6] > 10 µM | [7] > 10 µM | [9] > 10 µM | [10] > 10 µM | [19] > 10 µM | [11] > 10 µM | [12] > 10 µM | [14] > 10 µM | [15] > 10 µM | [16] > 10 µM | [17] > 10 µM

O=C1c2ccccc2C(=O)N1CCc1nc(-c2ccccc2)c[nH]1
inactive: [1] > 100 µM | [2] > 100 µM | [3] > 100 µM | [4] > 100 µM | [5] > 100 µM | [6] > 100 µM | [7] > 100 µM | [8] > 100 µM | [9] > 100 µM | [19] > 100 µM | [12] > 100 µM | [13] > 100 µM | [14] > 100 µM | [15] > 100 µM | [16] > 100 µM | [17] > 100 µM

COC(=O)C1=COC(C)C2CN3CCc4c([nH]c5cc(OC)c(OC)cc45)C3CC12 (stereo unspecified)
inactive: [1] > 100 µM and 66.7 µM | [18] 40.6 µM and 34.6 µM | [3] > 100 µM and 54 µM | [4] 64.9 µM and 37 µM | [5] 96.8 µM and 49.5 µM | [6] > 100 µM and 73.8 µM | [8] 50.4 µM and 36.8 µM | [10] > 100 µM and 72.6 µM | [19] > 100 µM | [11] 22 µM and 40.8 µM | [12] > 100 µM | [14] > 100 µM | [17] 51.1 µM and 54.2 µM

C[C@]12CC[C@@H]3c4ccc(O)cc4CC[C@H]3[C@@H]1C/C(=C\c1ccc(C#N)cc1)C2=O
inactive: [1] 36.5 µM | [18] 46.8 µM | [2] 24.5 µM | [4] 18.6 µM | [5] 30.8 µM | [6] 35.7 µM | [7] 48.2 µM | [8] 19.2 µM | [9] 55.5 µM | [10] 19.4 µM | [19] 28.8 µM | [11] 26.8 µM | [12] 71.8 µM | [13] 40.5 µM | [14] 23.3 µM | [15] 36.1 µM | [16] 45.5 µM | [17] 46.9 µM

OC[C@@H](O)[C@H](O)[C@H](O)[C@@H](O)C1SCCCS1
inactive: [1] > 100 µM | [18] > 100 µM | [2] > 100 µM | [4] > 100 µM | [5] > 100 µM | [6] > 100 µM | [7] > 100 µM | [8] > 100 µM | [9] > 100 µM | [10] > 100 µM | [19] > 100 µM | [11] 17.2 µM | [12] > 100 µM | [13] > 100 µM | [14] > 100 µM | [15] > 100 µM | [16] > 100 µM | [17] > 100 µM

N=c1c2c(-c3ccccc3)c[nH]c2ncn1N
inactive: [1] > 100 µM | [18] > 100 µM | [2] > 100 µM | [4] > 100 µM | [5] > 100 µM | [6] > 100 µM | [7] > 100 µM | [8] > 100 µM | [9] > 100 µM | [10] > 100 µM | [19] > 100 µM | [11] > 100 µM | [12] > 100 µM | [13] > 100 µM | [14] > 100 µM | [16] > 100 µM | [17] > 100 µM

COc1cc(/C=C2/Oc3c(OC)cccc3C2=O)ccc1O
inactive: [2] > 100 µM | [3] > 100 µM | [4] 43.9 µM | [5] > 100 µM | [6] 76.4 µM | [7] > 100 µM | [8] 34.8 µM | [9] > 100 µM | [10] 52.5 µM | [19] > 100 µM | [11] > 100 µM | [12] > 100 µM | [13] > 100 µM | [14] > 100 µM | [15] 32.4 µM | [16] > 100 µM | [17] 63 µM

Cc1ccc(S(=O)(=O)Oc2nc3ccccc3nc2OS(=O)(=O)c2ccc(C)cc2)cc1
inactive: [1] > 100 µM | [2] 25.9 µM | [3] > 100 µM | [4] > 100 µM | [5] > 100 µM | [6] > 100 µM | [7] > 100 µM | [8] 28.5 µM | [9] > 100 µM | [10] > 100 µM | [19] > 100 µM | [12] > 100 µM | [14] > 100 µM | [15] > 100 µM | [16] > 100 µM | [17] > 100 µM

SCc1ccc(CS)s1
inactive: [1] > 100 µM | [18] > 100 µM | [2] > 100 µM | [4] > 100 µM | [5] > 100 µM | [6] > 100 µM | [7] > 100 µM | [8] > 100 µM | [9] > 100 µM | [10] > 100 µM | [11] 15.3 µM | [12] > 100 µM | [13] > 100 µM | [14] > 100 µM | [15] > 100 µM | [16] > 100 µM | [17] > 100 µM

O=C(CCc1cc(O)cc(O)c1)NCCCNC(=O)CCc1cc(O)cc(O)c1
inactive: [1] > 100 µM | [18] > 100 µM | [2] > 100 µM | [4] > 100 µM | [5] > 100 µM | [6] > 100 µM | [7] > 100 µM | [8] > 100 µM | [9] > 100 µM | [10] > 100 µM | [19] > 100 µM | [11] > 100 µM | [12] > 100 µM | [13] > 100 µM | [14] > 100 µM | [16] > 100 µM | [17] > 100 µM

CC(=O)SCCC(NC(=S)Nc1ccccc1)P(=O)(Oc1ccccc1)Oc1ccccc1 (stereo unspecified)
inactive: [1] > 100 µM | [18] > 100 µM | [2] > 100 µM | [3] > 100 µM | [5] > 100 µM | [6] > 100 µM | [9] > 100 µM | [10] > 100 µM | [11] > 100 µM | [12] > 100 µM | [13] > 100 µM | [14] > 100 µM | [15] > 100 µM | [16] > 100 µM | [17] > 100 µM
